In ChEMBL document CHEMBL5042556, “Lead Optimization to Advance Protease-Activated Receptor-1 Antagonists in Early Discovery” (J Med Chem, 2022):
Each block holds one compound with its values, some of them ahead of it.

What was measured:
[1] = target: T1, Voltage-gated inwardly rectifying potassium channel KCNH2 (Homo sapiens, UniProt Q12809); assay: Inhibition of [35S]MK-499 binding to hERG expressed in HEK293 cells; format: toxicity, cell-based
[2] = target: T2, Proteinase-activated receptor 1 (Homo sapiens, UniProt P25116); assay: Antagonist activity at human PAR-1 expressed in HEK293 cells assessed as reduction in TRAP induced calcium signal at 3 uM by FLIPR analysis; format: functional, cell-based
T2 sequence (P25116 whole entry): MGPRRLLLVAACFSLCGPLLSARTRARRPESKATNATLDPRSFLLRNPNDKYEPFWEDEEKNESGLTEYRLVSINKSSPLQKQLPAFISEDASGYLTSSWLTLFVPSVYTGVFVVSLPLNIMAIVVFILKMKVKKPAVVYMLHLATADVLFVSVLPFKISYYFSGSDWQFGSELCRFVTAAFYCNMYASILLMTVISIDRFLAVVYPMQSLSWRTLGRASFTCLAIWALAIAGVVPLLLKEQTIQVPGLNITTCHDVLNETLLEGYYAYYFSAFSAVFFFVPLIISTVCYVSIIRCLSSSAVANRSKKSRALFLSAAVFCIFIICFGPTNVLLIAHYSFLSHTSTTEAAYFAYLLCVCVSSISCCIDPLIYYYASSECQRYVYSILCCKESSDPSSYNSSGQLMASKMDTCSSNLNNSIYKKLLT

[3] = MRT in cynomolgus monkey at 0.3 mg/kg, po; format: ADME, organism-based, Macaca fascicularis; details: in vivo
[4] = MRT in rat at 3 mg/kg, iv; format: ADME, organism-based; details: in vivo
[5] = MRT in intravenously dosed dog; format: ADME, organism-based, Canis lupus familiaris; details: in vivo, iv
[6] = Oral bioavailability in cynomolgus monkey; format: ADME, organism-based, Macaca fascicularis; details: in vivo
[7] = Plasma protein binding in dog assessed as unbound fraction; format: ADME, cell-free, Canis lupus familiaris
[8] = Clearance in mouse hepatocyte measured per 10^6 cells; format: ADME, cell-based; details: hepatocytes
[9] = Clearance in rat at 3 mg/kg, iv; format: ADME, organism-based; details: in vivo
[10] = Ex vivo inhibition of PAR-1 in cynomolgus monkey whole blood assessed as inhibition of TRAP-induced platelet aggregation at 1 mg/kg, po measured after 24 hrs; format: functional; details: Macaca fascicularis
[11] = Unbound volume of distribution in intravenously dosed dog; format: ADME, organism-based, Canis lupus familiaris; details: in vivo, iv
[12] = Apparent permeability in MDCKII-LE cells; format: ADME, cell-based, Canis lupus familiaris; details: dog, MDCK
[13] = Unbound clearance in intravenously dosed dog; format: ADME, organism-based, Canis lupus familiaris; details: in vivo, iv
[14] = Clearance in rat hepatocyte measured per 10^6 cells; format: ADME, cell-based; details: hepatocytes
[15] = Clearance in human hepatocyte measured per 10^6 cells; format: ADME, cell-based; details: hepatocytes
[16] = Plasma protein binding in rat assessed as unbound fraction; format: ADME, cell-free
[17] = Oral bioavailability in dog; format: ADME, organism-based, Canis lupus familiaris; details: in vivo
[18] = Volume of distribution in rat at 0.3 mg/kg, iv; format: ADME, organism-based; details: in vivo
[19] = Clearance in intravenously dosed dog; format: ADME, organism-based, Canis lupus familiaris; details: in vivo, iv
[20] = Unbound clearance in rat at 3 mg/kg, iv; format: ADME, organism-based; details: in vivo
[21] = Plasma protein binding in cynomolgus monkey assessed as unbound fraction; format: ADME, cell-free, Macaca fascicularis
[22] = MRT in intravenously dosed cynomolgus monkey; format: ADME, organism-based, Macaca fascicularis; details: in vivo, iv
[23] = target: T1, Voltage-gated inwardly rectifying potassium channel KCNH2; assay: Inhibition of [35S]MK-499 binding to hERG expressed in HEK293 cells at 60 uM; format: toxicity, cell-based
[24] = Ex vivo inhibition of PAR-1 in cynomolgus monkey whole blood assessed as inhibition of TRAP-induced platelet aggregation at 0.3 mg/kg, po measured after 24 hrs; format: functional; details: Macaca fascicularis
[25] = Clearance in dog hepatocyte measured per 10^6 cells; format: ADME, cell-based, Canis lupus familiaris; details: hepatocytes
[26] = Unbound volume of distribution in rat at 3 mg/kg, iv; format: ADME, organism-based; details: in vivo
[27] = MRT in rat at 1 mg/kg, iv; format: ADME, organism-based; details: in vivo
[28] = target: P-glycoprotein (ABCB1) (Homo sapiens, UniProt P08183); assay: Effect on human P-glycoprotein expressed in MDCK cells assessed as efflux ratio of apparent permeability across basolateral to apical side over apical to basolateral side (reference value: 0.6 to 0.8); format: ADME, cell-based, MDCKII-LE; details: MDCK-MDR1
[29] = test system: P-glycoprotein; assay: Effect on rat P-glycoprotein expressed in MDCK cells assessed as efflux ratio of apparent permeability across basolateral to apical side over apical to basolateral side (reference value: 0.6 to 0.8); format: ADME, cell-based, MDCKII-LE; details: MDCK-MDR1
[30] = Volume of distribution in intravenously dosed cynomolgus monkey; format: ADME, organism-based, Macaca fascicularis; details: in vivo, iv
[31] = Clearance in intravenously dosed cynomolgus monkey; format: ADME, organism-based, Macaca fascicularis; details: in vivo, iv
[32] = MRT in cynomolgus monkey at 0.3 mg/kg, iv; format: ADME, organism-based, Macaca fascicularis; details: in vivo
[33] = Unbound volume of distribution in intravenously dosed cynomolgus monkey; format: ADME, organism-based, Macaca fascicularis; details: in vivo, iv
[34] = Oral bioavailability in rat; format: ADME, organism-based; details: in vivo
[35] = Unbound clearance in intravenously dosed cynomolgus monkey; format: ADME, organism-based, Macaca fascicularis; details: in vivo, iv

T1 sequence (Q12809 whole entry): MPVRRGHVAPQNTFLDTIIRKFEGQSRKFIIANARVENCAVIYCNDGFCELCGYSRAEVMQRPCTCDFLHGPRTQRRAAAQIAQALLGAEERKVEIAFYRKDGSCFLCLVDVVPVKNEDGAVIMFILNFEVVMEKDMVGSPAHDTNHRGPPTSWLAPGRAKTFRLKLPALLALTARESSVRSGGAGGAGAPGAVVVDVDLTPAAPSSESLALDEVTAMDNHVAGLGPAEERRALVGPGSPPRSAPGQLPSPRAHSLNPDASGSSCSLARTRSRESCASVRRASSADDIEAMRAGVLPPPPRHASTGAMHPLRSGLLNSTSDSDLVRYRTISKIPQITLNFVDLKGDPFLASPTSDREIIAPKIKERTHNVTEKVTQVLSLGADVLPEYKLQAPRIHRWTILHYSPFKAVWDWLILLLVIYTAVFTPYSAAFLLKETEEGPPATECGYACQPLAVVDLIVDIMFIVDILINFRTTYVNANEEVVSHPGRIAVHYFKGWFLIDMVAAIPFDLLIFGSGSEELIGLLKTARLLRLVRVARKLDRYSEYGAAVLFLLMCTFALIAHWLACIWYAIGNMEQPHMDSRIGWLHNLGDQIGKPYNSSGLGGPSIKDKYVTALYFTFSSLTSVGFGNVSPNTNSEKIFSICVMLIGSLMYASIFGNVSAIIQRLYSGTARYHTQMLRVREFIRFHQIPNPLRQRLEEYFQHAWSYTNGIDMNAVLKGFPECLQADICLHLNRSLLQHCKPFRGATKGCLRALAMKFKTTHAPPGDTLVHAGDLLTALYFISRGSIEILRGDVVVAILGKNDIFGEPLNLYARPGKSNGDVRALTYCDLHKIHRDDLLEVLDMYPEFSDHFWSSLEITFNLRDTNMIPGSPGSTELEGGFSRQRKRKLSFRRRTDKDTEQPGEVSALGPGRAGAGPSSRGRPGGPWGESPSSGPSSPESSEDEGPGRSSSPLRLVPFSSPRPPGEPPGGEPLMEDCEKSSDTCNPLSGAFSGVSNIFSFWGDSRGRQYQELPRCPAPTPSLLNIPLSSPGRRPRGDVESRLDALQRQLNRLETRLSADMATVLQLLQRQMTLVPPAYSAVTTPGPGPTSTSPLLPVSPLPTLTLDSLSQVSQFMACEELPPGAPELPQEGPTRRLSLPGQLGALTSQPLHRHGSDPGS
P-glycoprotein (ABCB1), sequence (P08183 whole entry): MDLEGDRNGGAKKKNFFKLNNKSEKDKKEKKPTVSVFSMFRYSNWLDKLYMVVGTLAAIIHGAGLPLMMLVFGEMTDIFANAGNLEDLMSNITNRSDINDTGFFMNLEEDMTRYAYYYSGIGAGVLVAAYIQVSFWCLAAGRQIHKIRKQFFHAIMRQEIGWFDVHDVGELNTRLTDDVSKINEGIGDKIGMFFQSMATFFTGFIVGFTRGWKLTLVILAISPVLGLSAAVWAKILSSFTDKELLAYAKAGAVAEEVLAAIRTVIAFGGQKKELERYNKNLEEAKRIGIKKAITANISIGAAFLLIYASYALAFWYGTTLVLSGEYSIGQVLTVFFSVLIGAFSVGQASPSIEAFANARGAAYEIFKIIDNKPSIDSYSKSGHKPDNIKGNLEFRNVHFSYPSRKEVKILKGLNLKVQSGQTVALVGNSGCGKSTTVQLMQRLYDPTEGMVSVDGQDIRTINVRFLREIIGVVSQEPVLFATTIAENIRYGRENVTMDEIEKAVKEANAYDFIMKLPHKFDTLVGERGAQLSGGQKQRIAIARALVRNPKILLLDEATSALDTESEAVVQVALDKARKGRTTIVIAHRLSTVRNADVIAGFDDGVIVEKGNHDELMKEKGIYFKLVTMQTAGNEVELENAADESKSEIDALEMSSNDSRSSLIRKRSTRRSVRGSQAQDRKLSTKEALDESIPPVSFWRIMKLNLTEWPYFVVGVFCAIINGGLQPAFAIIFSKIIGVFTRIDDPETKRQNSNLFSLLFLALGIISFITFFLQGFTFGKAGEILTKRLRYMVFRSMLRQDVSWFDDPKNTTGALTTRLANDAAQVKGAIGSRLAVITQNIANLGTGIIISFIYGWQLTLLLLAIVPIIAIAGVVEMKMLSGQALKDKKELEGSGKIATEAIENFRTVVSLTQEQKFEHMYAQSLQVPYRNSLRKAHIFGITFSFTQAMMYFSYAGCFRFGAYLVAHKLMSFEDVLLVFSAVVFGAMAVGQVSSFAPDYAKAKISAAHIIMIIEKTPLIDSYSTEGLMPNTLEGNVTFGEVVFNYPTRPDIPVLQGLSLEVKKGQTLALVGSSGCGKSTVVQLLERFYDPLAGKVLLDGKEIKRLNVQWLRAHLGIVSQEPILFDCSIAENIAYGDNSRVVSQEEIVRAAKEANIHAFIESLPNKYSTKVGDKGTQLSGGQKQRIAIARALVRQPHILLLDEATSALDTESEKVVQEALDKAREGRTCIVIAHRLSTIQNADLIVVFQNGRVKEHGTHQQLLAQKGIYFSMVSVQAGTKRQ

- IC50 [2]: 8 nM
- MRT [3]: 68 h
SMILES: C[C@H]1OC(=O)[C@]2(O)CC(F)(F)[C@@H](C)[C@H](/C=C/c3ccc(-c4cccc(F)c4)cn3)[C@H]12
- IC50 [1]: 29 µM

- MRT [4]: 1.4 h
- MRT [5]: 2.3 h
- bioavailability [6]: 57%
- fraction unbound [7]: 0.02
- CLint [8]: 11.4 µL/min/1e6 cells
- clearance [9]: 37 mL/min/kg
- Vdu [11]: 171 L/kg
- Papp [12]: 41.9 ×10⁻⁶ cm/s
- CL free [13]: 1238 mL/min/kg
- CLint [14]: 2.3 µL/min/1e6 cells
- CLint [15]: 4.3 µL/min/1e6 cells
- fraction unbound [16]: 0.03
- bioavailability [17]: 5%
- Vd [18]: 3.1 L/kg
- IC50 [2]: 3 nM
- clearance [19]: 26 mL/min/kg
- CL free [20]: 1370 mL/min/kg
- fraction unbound [21]: 0.02
- MRT [22]: 3 h
- CLint [25]: 41.7 µL/min/1e6 cells
- Vdu [26]: 115 L/kg
- MRT [27]: 2.2 h
- efflux ratio [28]: 1.5
- efflux ratio [29]: 3.3
- Vd [30]: 1.5 L/kg
- clearance [31]: 8.6 mL/min/kg
- MRT [32]: 3.2 h
- Vdu [33]: 60 L/kg
- bioavailability [34]: 44%
- CL free [35]: 344 mL/min/kg
SMILES: Cc1cccc(-c2ccc(/C=C/[C@@H]3[C@@H]4[C@@H](C)OC(=O)[C@]4(O)CC(F)(F)[C@H]3C)nc2)c1C#N
- inhibition in vivo at 1 mg/kg [10]: 100%
- IC50 [1]: 9 µM
- IC50 [23]: 9 µM
- inhibition in vivo at 0.3 mg/kg [24]: 100%

- IC50 [2]: 178 nM
SMILES: C[C@H]1OC(=O)[C@@H]2CC3(NC(=O)NC3=O)[C@@H](C)[C@H](c3ccc(-c4cccc(F)c4)cn3)[C@H]12 (some centres undefined)

- IC50 [2]: 5 nM
SMILES: C[C@H]1OC(=O)[C@@H]2CC(F)(F)[C@@H](C)[C@H](c3ccc(-c4cccc(F)c4)cn3)[C@H]12
